Consider 5 compounds from PMC8624998, “Synthesis and Antiproliferative Evaluation of 3-Chloroazetidin-2-ones with Antimitotic Activity: Heterocyclic Bridged Analogues of Combretastatin A-4” (Pharmaceuticals, 2021).

Common to all, as to format: cell-based
One experiment deals with U266 cells. The experiment in a line: Cell viability assay, antiproliferative activity. To be noted: Homo sapiens, U-266; U266, 72 h. The text has this: Compounds 10n and 10e were next evaluated for antiproliferation in multiple myeloma (U266) cells. Multiple myeloma, also known as plasma cell myeloma, is a malignant haematological disease characterised by the proliferation of clonal plasma cells predominantly in the bone marrow. U266 cells are considered to be the least sensitive multiple myeloma cells to nucleoside drug cladribine compared to RPMI8226 and MM1.S cells.
The human breast carcinoma cell line MCF-7 was purchased from the European Collection of Animal Cell Cultures (ECACC). Triple negative breast cancer Hs578T cells and its invasive variant Hs578Ts(i)8 were a kind gift from Dr. Susan McDonnell, School of Chemical and Bioprocess Engineering, University College Dublin. U266 cells were a gift from Dr. Tony McElligott, School of Medicine, St James’s Hospital, Trinity College Dublin. HT-29 cells were purchased from the European Collection of Cell Cultures (originating from a human adenocarcinoma of the colon). The human breast carcinoma cell line MDA-MB-231 and the HL-60 cells derived from a patient with acute myeloid leukaemia were both obtained from ECACC (Salisbury, UK). The SW-480 cells were a kind gift from Dr. Brian Flood, School of Biochemistry and Immunology, Trinity College Dublin. HEK-293T (normal epithelial embryonic kidney cells) were cultured in Dulbecco’s Modified Eagle’s Medium (DMEM) with GlutaMAXTM-I in the absence of non-essential amino acids. […] Cell numbers were monitored using a haemocytometer. […]
A stock solution of each β-lactam compound was prepared (10 mM) and serial […] dilutions were made with ethanol for compounds to have working dilutions of 1 nM, 10 nM, 100 nM, 500 nM, 1µM, 5 µM, 10 µM and 50 µM. […] Solubilisation was commenced by the addition of DMSO ([…]) and the cells were maintained at 20 °C in the dark for 20 min before reading the absorbance to ensure complete colour diffusion. […]

Another experiment deals with HL-60 cells. In words: Cell viability assay, antiproliferative activity. The protocol:
(§1) […]. The corresponding values for 10e in these cell lines were 161 nM (HL-60), 55 nM (SW480) and 135 nM (HT-29). […] […]. SW480 colon cells expressed low levels of the UDP-glucuronosyltransferase (UGT) protein compared to expression levels in HT-29 cells. […] […].
(§2) The human breast carcinoma cell line MCF-7 was purchased from the European Collection of Animal Cell Cultures (ECACC). Triple negative breast cancer Hs578T cells and its invasive variant Hs578Ts(i)8 were a kind gift from Dr. Susan McDonnell, School of Chemical and Bioprocess Engineering, University College Dublin. U266 cells were a gift from Dr. Tony McElligott, School of Medicine, St James’s Hospital, Trinity College Dublin. HT-29 cells were purchased from the European Collection of Cell Cultures (originating from a human adenocarcinoma of the colon). The human breast carcinoma cell line MDA-MB-231 and the HL-60 cells derived from a patient with acute myeloid leukaemia were both obtained from ECACC (Salisbury, UK). The SW-480 cells were a kind gift from Dr. Brian Flood, School of Biochemistry and Immunology, Trinity College Dublin. HEK-293T (normal epithelial embryonic kidney cells) were cultured in Dulbecco’s Modified Eagle’s Medium (DMEM) with GlutaMAXTM-I in the absence of non-essential amino acids. Human breast cancer MCF-7 cells and multiple myeloma U266 cells were cultured in Minimum Essential Media (MEM) with GlutaMAX™-I, supplemented with 1% (v/v) non-essential amino acids, 10% 2(v/v) foetal bovine serum (FBS) and 1% (v/v) penicillin/streptomycin 5000 U/mL. MDA-MB-231 cells were maintained in DMEM supplemented with 10% (v/v) foetal bovine serum, 2 mM L-glutamine and 100 μg/mL penicillin/streptomycin (complete medium). Colon cancer HT-29 and SW-480 and triple negative breast cancer Hs578T and its invasive variant Hs578T8i were cultured in DMEM with GlutaMAX™-I, with the same supplement in the absence of non-essential amino acids. Leukaemia HL-60 cancer cells were cultured in Roswell Park Memorial Institute Media (RPMI-1640) with GlutaMAX™-I, supplemented with 10% FCS media, and 100 μg/mL penicillin/streptomycin as above. Cell numbers were monitored using a haemocytometer. Cell culture flasks were incubated in a humidified incubator (5% CO2/95% air) at 37 °C. All cell lines were sub-cultured three times per week with trypsinisation using TrypLE Express (1X) required for adherent cell lines.
(§3) . All stock solutions and serial dilution in ethanol/DMSO were stored at -20 °C. All cells were seeded at a density of 2.5 × 10^4 cells/mL in a 96-well plate (200 μL per well). The cells were incubated in a […] atmosphere at 37 °C for 24 h, then treated with test compound (2 μL of stock solutions per 200-microlitre well) in ethanol to obtain a concentration range of 1 nM–200 μM for the study. The plates were then re-incubated for a further 72 h. Control wells contained an equivalent volume of the vehicle ethanol or DMSO (1% v/v). MTT cell viability assay: The culture medium was removed, and the cells were washed with phosphate buffered saline (PBS, […]). MTT (dissolved in PBS, […]) was added to obtain a final concentration of MTT (1 mg/mL). Cells were incubated at 37 °C for 3 h in the dark. Solubilisation was commenced by the addition of DMSO ([…]) and the cells were maintained at 20 °C in the dark for 20 min before reading the absorbance to ensure complete colour diffusion. The absorbance value of control cells (no added compound) was set to 100% cell viability and absorbance versus cell density per well was determined to assess cell viability using Graph-Pad Prism software. AlamarBlue cell viability assay: Cells were seeded in 96-well plates (e.g., MCF-7, 5 × 10^3 cells/well) and (HT-29 cells, 1 × 10^3 cells/well) and (HL-60 cells, 1 × 10^4 cells/well) with a total volume per well of 200 µL. After 24 h, cells were treated in triplicate with serial dilutions of CA-4 or β-lactam analogues (0.001–100 μM), medium alone or vehicle (1% ethanol (v/v)). […]

For another experiment, the system named is HT-29 cells. The experiment in a line: Cell viability assay, antiproliferative activity. The protocol:
as §1, §2, §3

The subject of the next experiment is HOP-62. In words: NCI-60 5 dose screen, NSC Lung Cancer. To be noted: Homo sapiens.
Another experiment has as its system NCI-H552. In words: NCI-60 5 dose screen, NSC Lung Cancer. To be noted: Homo sapiens.
The subject of another experiment is SF295. In words: NCI-60 5 dose screen, CNS Cancer. To be noted: Homo sapiens, SF-295.
For a further experiment, the system named is PC-3. In words: NCI-60 5 dose screen, Prostate cancer. The note with it: Homo sapiens.
The test system of a further experiment is SK-MEL-28. In words: NCI-60 5 dose screen, Melanoma. The note with it: Homo sapiens.
The test system of another experiment is UACC-62. The experiment in a line: NCI-60 5 dose screen, Melanoma. To be noted: Homo sapiens.
The test system of a further experiment is UO-31. In words: NCI-60 5 dose screen, Renal Cancer. To be noted: Homo sapiens.
[1] abbreviates: Homo sapiens, HL-60, 72 h; read-out: HL-60 IC50.
The mark [2] stands for this setting: Homo sapiens, HT-29, 72 h; read-out: HT-29 IC50.

Read-outs that look alike come from different tables or passages of the source.

A word on the IC50: it is the midpoint of a concentration-inhibition curve. One may read the GI50 as the concentration that inhibits growth by half. Take `COc1ccc([C@H]2[C@H](Cl)C(=O)N2c2cc(OC)c(OC)c(OC)c2)cc1` (relative stereo) [Compound 10e trans, Trans-3-chloro-1-(3,4,5-trimethoxyphenyl)-4-(4-methoxyphenyl) azetidin-2-one]: the concentration for half-maximal inhibition (IC50) turned out to be 77 ± 20 nM in the experiment on U266 cells, 161 ± 20 nM in the experiment with HL-60 cells (setting [1]) and 135 ± 60 nM in the experiment on HT-29 cells (setting [2]). Further, the GI50 in the experiment on HOP-62 (read-out: GI50) amounted to 53.8 nM; in the experiment on NCI-H552 (NCI-H552, read-out: GI50), 20.7 nM; with SF295 (SF295, read-out: GI50) it was 25.4 nM; in the experiment with PC-3 (read-out: GI50) it was 44.1 nM; in the experiment with SK-MEL-28 (read-out: GI50), 69.6 nM; with UACC-62 (read-out: GI50), 51.8 nM. Moreover, the concentration for 50% growth inhibition (GI50) in the experiment on UO-31 (read-out: GI50) is 64.4 nM.

Regarding `COc1ccc(/C=C\c2cc(OC)c(OC)c(OC)c2)cc1O` [CA-4, Combretastatin A-4], the IC50 in the experiment on U266 cells came out at 35 ± 10 nM; with HL-60 cells (setting [1]), 1.9 ± 0.5 nM; with HL-60 cells (Homo sapiens, HL-60; read-out: HL-60 IC50), 2 nM; in the experiment on HT-29 cells (Homo sapiens, HT-29; read-out: HT-29 IC50), 4160 nM.

For the compound `COc1ccc(C2C(Cl)C(=O)N2c2cc(OC)c(OC)c(OC)c2)cc1O` (stereo not drawn) [Compound 10n, 3-Chloro-4-(3-hydroxy-4-methoxy-phenyl)-1-(3,4,5-trimethoxyphenyl)azetidin-2-one], the results for the IC50 with U266 cells, in the experiment on HL-60 cells (setting [1]) and with HT-29 cells (setting [2]) were 31 ± 10 nM, 10 ± 8 nM and 631 ± 30 nM, respectively.

On to `COc1ccc(C2N(c3cc(OC)c(OC)c(OC)c3)C(=O)C2(Cl)Cl)cc1O` (stereo not drawn) [Compound 11n, 3,3-Dichloro-4-(3-hydroxy-4-methoxyphenyl)-1-(3,4,5-trimethoxyphenyl)azetidin-2-one], for which the IC50 in the experiment on HL-60 cells (Homo sapiens, HL-60, 72 h, read-out: HL-60 IC50) came to 16 ± 5 nM; with HT-29 cells (Homo sapiens, HT-29, 72 h, read-out: HT-29 IC50), 941 ± 60 nM. Moreover, the GI50 with HOP-62 amounted to 35 nM; in the experiment with NCI-H552, 16.4 nM; in the experiment on SF295, 38.7 nM; in the experiment on PC-3 it was 35.3 nM; with SK-MEL-28, 62.9 nM; in the experiment on UACC-62, 42.2 nM. The same compound gave a 50% growth inhibitory concentration (GI50) in the experiment with UO-31 of 82.1 nM.

As to `CCSc1ccc(C2C(Br)C(=O)N2c2cc(OC)c(OC)c(OC)c2)cc1` (stereo not drawn) [Compound 16d, 3-Bromo-4-(4-(ethylthio)phenyl)-1-(3,4,5-trimethoxyphenyl)azetidin-2-one], the GI50 came out at 336 nM in the experiment with HOP-62 (read-out: GI50); 158 nM with NCI-H552 (NCI-H552, read-out: GI50); 87 nM with SF295 (SF295, read-out: GI50); 297 nM with PC-3 (read-out: GI50); 1940 nM in the experiment with SK-MEL-28 (read-out: GI50); 97.2 nM in the experiment on UACC-62 (read-out: GI50). Further, the GI50 with UO-31 (read-out: GI50) worked out at 342 nM.
